US9271969B2, “Compounds as inhibitors of diacylglycerol O-acyltransferase type 1 enzyme” (KAINOS MEDICINE, INC., priority 2012, dated 2016)
pIC50: −log10 of the molar value.

Key:
[1] = biological target: human DGAT1 (Homo sapiens (Human), UniProt O75907); test: Radiometric DGAT1 assay, human liver microsomes; assay type: biochemical; conditions: Source of human DGAT activity B = human liver microsomes
Excerpt: (§1) A second source of DGAT1 activity was human or mouse liver microsomes.

[2] = biological target: mouse DGAT1 (Mus musculus (Mouse), UniProt Q9Z2A7); test: Radiometric DGAT1 assay, mouse liver microsomes; assay type: biochemical; conditions: mouse liver microsomes having mouse DGAT1 activity
Excerpt: as §1

human DGAT1, sequence (O75907 whole entry): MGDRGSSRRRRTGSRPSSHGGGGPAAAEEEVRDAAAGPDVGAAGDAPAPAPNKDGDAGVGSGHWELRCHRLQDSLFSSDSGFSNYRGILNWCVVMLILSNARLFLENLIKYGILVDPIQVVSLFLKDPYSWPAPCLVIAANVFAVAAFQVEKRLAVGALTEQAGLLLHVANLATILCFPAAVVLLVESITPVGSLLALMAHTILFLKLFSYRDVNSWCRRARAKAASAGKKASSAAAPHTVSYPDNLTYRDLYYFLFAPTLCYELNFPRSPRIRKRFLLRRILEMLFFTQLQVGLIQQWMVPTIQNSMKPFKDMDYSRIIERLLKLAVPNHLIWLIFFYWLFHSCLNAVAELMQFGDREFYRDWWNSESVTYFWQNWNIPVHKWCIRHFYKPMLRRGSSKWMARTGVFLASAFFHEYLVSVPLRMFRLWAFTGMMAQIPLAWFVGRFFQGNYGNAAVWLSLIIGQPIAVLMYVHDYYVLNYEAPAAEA
mouse DGAT1, sequence (Q9Z2A7 whole entry): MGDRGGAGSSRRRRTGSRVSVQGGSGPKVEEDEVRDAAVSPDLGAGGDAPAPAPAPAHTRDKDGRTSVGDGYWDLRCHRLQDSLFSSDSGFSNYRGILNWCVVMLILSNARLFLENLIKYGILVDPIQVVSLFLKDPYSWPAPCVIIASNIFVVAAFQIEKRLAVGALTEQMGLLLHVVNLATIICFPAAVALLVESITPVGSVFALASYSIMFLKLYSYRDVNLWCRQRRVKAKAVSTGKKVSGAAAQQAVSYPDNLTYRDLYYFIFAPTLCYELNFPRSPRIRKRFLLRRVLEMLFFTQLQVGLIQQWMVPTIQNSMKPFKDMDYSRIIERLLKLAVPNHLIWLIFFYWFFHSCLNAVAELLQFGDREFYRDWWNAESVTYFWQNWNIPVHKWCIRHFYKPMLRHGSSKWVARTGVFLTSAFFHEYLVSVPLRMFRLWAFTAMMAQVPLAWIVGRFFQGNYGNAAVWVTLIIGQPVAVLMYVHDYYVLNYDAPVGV

| Structure (SMILES) | pIC50 [1] | pIC50 [2] |
| --- | --- | --- |
| O=C(O)C[C@H]1CC[C@H](c2ccc(-c3ccc4nc(C(=O)NCc5ccc(C(F)(F)F)cc5)cn4c3)cc2)CC1 [Compound 4, 2-((1r,4r)-4-(4-(2-((4-(Trifluoromethyl)benzyl)carbamoyl)imidazo[1,2-a]pyridin-6-yl)-phenyl)cyclohexyl)acetic acid] | > 6.82 | > 7.12 |
| O=C(O)C[C@H]1CC[C@H](c2ccc(-c3ccc4nc(C(=O)Nc5cccc(OC(F)(F)F)c5)cn4c3)cc2)CC1 [Compound 5, 2-((1r,4r)-4-(4-(2-((3-(Trifluoromethoxy)phenyl)carbamoyl)imidazo[1,2-a]pyridin-6-yl)-phenyl)cyclohexyl)acetic acid] | > 7.00 | > 6.90 |
| O=C(O)C[C@H]1CC[C@H](c2ccc(-c3ccc4nc(C(=O)Nc5cccc(C(F)(F)F)c5)cn4c3)cc2)CC1 [Compound 6, 2-((1r,4r)-4-(4-(2-((3-(Trifluoromethyl)phenyl)carbamoyl)imidazo[1,2-a]pyridin-6-yl)-phenyl)cyclohexyl)acetic acid] | > 7.12 | > 6.82 |
| O=C(O)C[C@H]1CC[C@H](c2ccc(-c3ccc4nc(C(=O)NCc5cccc(OC(F)(F)F)c5)cn4c3)cc2)CC1 [Compound 7, 2-((1r,4r)-4-(4-(2-((3-(Trifluoromethoxy)benzyl)carbamoyl)imidazo[1,2-a]pyridin-6-yl)-phenyl)cyclohexyl)acetic acid] | > 6.76 | > 7.00 |
| COc1ccc(CNC(=O)c2cn3cc(-c4ccc([C@H]5CC[C@H](CC(=O)O)CC5)cc4)ccc3n2)cc1OC [Compound 23, 2-((1r,4r)-4-(4-(2-((3,4-Dimethoxybenzyl)carbamoyl)imidazo[1,2-a]pyridin-6-yl)phenyl)-cyclohexyl)acetic acid] | > 7.60 | > 7.60 |
| COc1ccccc1CNC(=O)c1cn2cc(-c3ccc([C@H]4CC[C@H](CC(=O)O)CC4)cc3)ccc2n1 [Compound 41, 2-((1r,4r)-4-(4-(2-((2-Methoxybenzyl)carbamoyl)imidazo[1,2-a]pyridin-6-yl)phenyl)cyclohexyl)acetic acid] | > 7.60 | > 7.12 |
| CC(C)(C)c1ccc(CNC(=O)c2cn3cc(-c4ccc([C@H]5CC[C@H](CC(=O)O)CC5)cc4)sc3n2)cc1 [Compound 46, 2-((1r,4r)-4-(4-(6-((4-(tert-Butyl)benzyl)carbamoyl)imidazo[2,1-b]thiazol-2-yl)phenyl)-cyclohexyl)acetic acid] | > 9.00 | > 7.30 |
| O=C(O)C[C@H]1CC[C@H](c2ccc(-c3cn4cc(C(=O)NCc5cccc(OC(F)(F)F)c5)nc4s3)cc2)CC1 [Compound 50, 2-((1r,4r)-4-(4-(6-((3-(Trifluoromethoxy)benzyl)carbamoyl)imidazo[2,1-b]thiazol-2-yl)-phenyl)cyclohexyl)acetic acid] | > 7.30 | > 7.60 |
| O=C(O)C[C@H]1CC[C@H](c2ccc(-c3cn4cc(C(=O)NCc5cc(OC(F)(F)F)ccc5F)nc4s3)cc2)CC1 [Compound 51, 2-((1r,4r)-4-(4-(6-((2-Fluoro-5-(trifluoromethoxy)benzyl)carbamoyl)imidazo[2,1-b]thiazol-2-yl)phenyl)cyclohexyl)acetic acid] | > 7.30 | > 7.30 |
| O=C(O)C[C@H]1CC[C@H](c2ccc(-c3cn4cc(C(=O)Nc5cccc(OC(F)(F)F)c5)nc4s3)cc2)CC1 [Compound 52, 2-((1r,4r)-4-(4-(6-((3-(Trifluoromethoxy)phenyl)carbamoyl)imidazo[2,1-b]thiazol-2-yl)-phenyl)cyclohexyl)acetic acid] | > 8.00 | > 8.00 |
| COc1ccc(OC(F)(F)F)cc1CNC(=O)c1cn2cc(-c3ccc([C@H]4CC[C@H](CC(=O)O)CC4)cc3)sc2n1 [Compound 55, 2-((1r,4r)-4-(4-(6-((2-Methoxy-5-(trifluoromethoxy)benzyl)carbamoyl)imidazo[2,1-b]-thiazol-2-yl)phenyl)cyclohexyl)acetic acid] | > 8.00 | > 7.60 |
| O=C(O)C[C@H]1CC[C@H](c2ccc(-c3cn4cc(C(=O)NCc5ccc(OC(F)(F)F)cc5)nc4s3)cc2)CC1 [Compound 56, 2-((1r,4r)-4-(4-(6-((4-(Trifluoromethoxy)benzyl)carbamoyl)imidazo[2,1-b]thiazol-2-yl)-phenyl)cyclohexyl)acetic acid] | > 8.00 | > 7.30 |

Other lines, results leading:

| pIC50 [1] | pIC50 [2] | Structure (SMILES) |
| --- | --- | --- |
| > 6.90 | > 7.30 | CC(C)(C)c1ccc(CNC(=O)c2cn3cc(-c4ccc([C@H]5CC[C@H](CC(=O)O)CC5)cc4)ccc3n2)cc1 [Compound 8, 2-((1r,4r)-4-(4-(2-((4-(tert-Butyl)benzyl)carbamoyl)imidazo[1,2-a]pyridin-6-yl)phenyl)-cyclohexyl)acetic acid] |
| > 7.30 | > 7.00 | O=C(O)C[C@H]1CC[C@H](c2ccc(-c3ccc4nc(C(=O)NCc5ccccc5)cn4c3)cc2)CC1 [Compound 31, 2-((1r,4r)-4-(4-(2-(Benzylcarbamoyl)imidazo[1,2-a]pyridin-6-yl)phenyl)cyclohexyl)acetic acid] |
| > 8.00 | > 8.00 | O=C(O)CC1CCC(c2ccc(-c3ccc4nc(C(=O)NCc5c(F)cc(Cl)cc5F)cn4c3)cc2)CC1 (stereo not drawn) [Compound 42, 2-((1s,4s)-4-(4-(2-((4-chloro-2,6-difluorobenzyl)carbamoyl)imidazo[1,2-a]pyridin-6-yl)phenyl)cyclohexyl)acetic acid] |
| > 8.00 | > 8.00 | Cc1cc(Cl)cc(Cl)c1CNC(=O)c1cn2cc(-c3ccc(C4CCC(CC(=O)O)CC4)cc3)ccc2n1 (stereo not drawn) [Compound 43, 2-((1s,4s)-4-(4-(2-((2,4-Dichloro-6-methylbenzyl)carbamoyl)imidazo[1,2-a]pyridin-6-yl)phenyl)cyclohexyl)acetic acid] |
| > 7.60 | > 8.00 | Cc1cc(C)c(CNC(=O)c2cn3cc(-c4ccc(C5CCC(CC(=O)O)CC5)cc4)ccc3n2)c(C)c1 (stereo not drawn) [Compound 44, 2-((1s,4s)-4-(4-(2-((2,4,6-Trimethylbenzyl)carbamoyl)imidazo[1,2-a]pyridin-6-yl)phenyl)cyclohexyl)acetic acid] |
| > 7.30 | > 7.30 | Cc1ccc(CNC(=O)c2nc3ccc(-c4ccc(C5CCC(CC(=O)O)CC5)cc4)cn3n2)cc1 (stereo not drawn) [Compound 45, 2-((1s,4s)-4-(4-(2-((4-Methylbenzyl)carbamoyl)-[1,2,4]triazolo[1,5-a]pyridin-6-yl)phenyl)cyclohexyl)acetic acid] |
| > 7.60 | > 7.00 | CC(C)c1ccc(CNC(=O)c2cn3cc(-c4ccc([C@H]5CC[C@H](CC(=O)O)CC5)cc4)sc3n2)cc1 [Compound 53, 2-((1r,4r)-4-(4-(6-((4-Isopropylbenzyl)carbamoyl)imidazo[2,1-b]thiazol-2-yl)phenyl)cyclohexyl)acetic acid] |
| > 8.00 | > 7.60 | O=C(O)C[C@H]1CC[C@H](c2ccc(-c3cn4cc(C(=O)NC5(c6cc(F)ccc6F)CC5)nc4s3)cc2)CC1 [Compound 54, 2-((1r,4r)-4-(4-(6-((1-(2,5-Difluorophenyl)cyclopropyl)carbamoyl)imidazo[2,1-b]thiazol-2-yl)phenyl)cyclohexyl)acetic acid] |
| > 8.00 | > 6.90 | CC(C)(C(=O)O)[C@H]1CC[C@H](c2ccc(-c3ccc4nc(C(=O)NCc5ccccc5)cn4c3)cc2)CC1 [Compound 65, 2-((1r,4r)-4-(4-(2-(Benzylcarbamoyl)imidazo[1,2-a]pyridin-6-yl)phenyl)cyclohexyl)-2-methylpropanoic acid] |
